Assay [1] relates to NCI-H929 multiple myeloma model. As to the kind of experiment: NCI-H929 subcutaneous multiple myeloma xenograft mouse model. The class given is in vivo, mice. To be noted: lenalidomide 1 mg/kg/day PO QD × 21 d; for Activity: hu38SB19 0.5 mg/kg/injection IV 2x/wk × 2 wk.
Text: (§1) The subcutaneous multiple myeloma (MM) xenograft mouse models were established using H929 and RPMI8226 cell lines. Specifically, 5-6 week old female Balb/c Scid mice were obtained from Jackson Lab. Mice were housed for 7-10 days prior to implantation. Mice were housed in a dedicated room in the UCSF Mt Zion Animal Barrier Facility. NCI-H929 and RPMI-8226 cells were obtained from the German Collection of Microorganisms and Cell Cultures, DSMZ, (Deutsche Sammlung von Mikroorganismen and Zellkulturen), and grown in sterile suspension culture in T225 flasks as follows: NCI-H929:RPMI1640+20% FBS+4 mM L-glutamine+1 mM sodium pyruvate+50 μM mercaptoethanol. RPMI-8226:RPMI1640+10% FBS+4 mM L-glutamine.
(§2) At the time of implantation, mice were shaved on the right flank and shoulder region and anesthetized with ip avertin. MM cells suspended in serum free RPMI 1640 media diluted 1:1 with Matrigel (BD) at a concentration of 1×10^8 cells per ml were injected sc into the right flank in 100 μL volume (1×10^7 cells) using a 1 ml syringe and 25 g needle. Mice were monitored twice weekly for the appearance of tumors and once tumors were visible, measurements were collected twice weekly for body weight and tumor volume. Electronic balance and calipers were used and data was collected directly into a study management program (Study Director). When the mean tumor volume reached about 150-200 mm^3, the mice were distributed into treatment groups of 8-10 mice per groups and dosing was begun.
(§3) Data were collected using electronic balance and calipers using a study management application called StudyLog (Study Director).
(§4) Antitumor activity was determined according to NCI standards based on the ratio of the median tumor volume change of the treated/median tumor volume change of the control×100 (% ΔT/ΔC). Low numerical values for ΔT/ΔC describe stronger anti-tumor activity. Anti-tumor activity is defined as ΔT/ΔC≤40% at minimum. ΔT/ΔC<10% is considered high anti-tumor activity.
The next assay concerns RPMI-8226 tumors. As to the kind of experiment: RPMI-8226 hind-flank xenograft model (Example 3, FIGS. 13-14). Type of assay: in vivo, mice. To be noted: RPMI-8226 xenograft; hu38SB19 twice weekly × 2 wk IV; lenalidomide qdx7×3 wk PO. As to the method: Lenolidomide (TC27682) was obtained from AK Scientific Inc. (Mountain View, Calif.) and prepared as a suspension in 1% (w/v) carboxymethyl cellulose (Sigma). Preparation was made using a mortar and pestle to generate a slurry suspension in the vehicle, diluted to the appropriate concentration, and used for dosing by oral gavage. Lenalidomide was administered qdx7×3 wk PO.
Zion Animal Barrier Facility.
RPMI-8226 were cultured in RPMI1640+10% FBS+4 mM L-glutamine.

In assay [2] the test system is RPMI-8226 multiple myeloma model. In words: RPMI-8226 subcutaneous multiple myeloma xenograft mouse model. Conditions: RPMI-8226 xenograft, hu38SB19 15 mg/kg/injection IV 2x/wk × 2 wk, lenalidomide 15 mg/kg/day PO QD × 21 d.
Text: as §1, §2, §3, §4
Assay [3] relates to tumor cells. Conditions: reported for other CD38 antibodies; cited from earlier work.
The subject of assay [4] is tumor cells. In words: Apoptosis induction on tumor cells (preclinical studies). Type of assay: cell-based. Conditions: without cross-linking.
Assay [5] has as its system tumor cells. In words: ADCC on tumor cells. The class given is cell-based.

For the molecule `Nc1cccc2c1CN(C1CCC(=O)NC1=O)C2=O` (racemic) [Lenalidomide, (RS)-3-(4-amino-1-oxo-3H-isoindol-2-yl)piperidine-2,6-dione], the “% ΔT/ΔC (D69)” value in assay [1] (D69, hu38SB19 0.5 mg/kg/injection IV 2x/wk × 2 wk) is 20%; in assay [2] (D69), 61%. The Activity entry in assay [1] was “Active”; in assay [1] (listed as lenalidomide), “active”; in assay [2] it was “Inactive”; in assay [2] (listed as lenalidomide), “inactive”. Further, the “Tumor growth inhibition” value in the assay on RPMI-8226 tumors is reported as “not robustly sensitive to single-agent therapy”.
Consider “Daratumumab: CD38 antibody reported to induce apoptosis only after cross-linking”, for which, in the assay with tumor cells [3], the “Apoptosis induction” value is reported as “able to induce apoptosis only after cross-linking with a secondary antibody”.
Consider “hu38SB19: humanized anti-CD38 antibody; VH SEQ ID NO: 66, VL SEQ ID NO: 62 or 64”, for which the Activity entry is on record as “Active” in assay [1] and “Inactive” in assay [2]. Also, the “Tumor growth inhibition” value in the assay with RPMI-8226 tumors is “dose-dependent inhibition of tumor growth”. Besides, in the assay on tumor cells [4], the “Pro-apoptotic activity on tumor cells” value is reported as “potent direct pro-apoptotic activity”. For the same molecule, in the assay on tumor cells [5], the “ADCC activity on tumor cells” value is listed as “potent ADCC”.

The values above are taken from patent publication US10342869B2, “Compositions comprising anti-CD38 antibodies and lenalidomide” (SANOFI, priority 2012, dated 2019).
